Publication PMC12152147, “DDB1 engagement defines the selectivity of S656 analogs for cyclin K degradation over CDK inhibition” (EMBO Reports, 2025)
pIC50: −log10 of the molar value. Read-outs that look alike come from different tables or passages of the source.

What was measured:
cyclin KeGFP = assay: Cyclin KeGFP reporter system (eGFP/mCherry MFI by flow cytometry);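 as to % degradation cyclin K-eGFP: 10 μM compound for 3 h relative to DMSO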; format: cell-based, H. sapiens; conditions: for % degradation cyclin K-eGFP: cyclin K-eGFP reporter
Experimental: We used the cyclin KeGFP reporter system previously described (Słabicki et al, [2020]). Lentiviral vector (Addgene plasmid #169930) was used to infect OCI-AML5 at a MOI of 5 and were selected with puromycin. Cells were seeded in methylcellulose and let grown as colonies for 10 days. Colonies were isolated, expanded and selected based on cyclin KeGFP fluorescence in presence and absence of cyclin K degrader molecules. Selected G7 clone was used for all reported experiments. Fluorescent signal of cyclin KeGFP and mCherry were quantified by flow cytometry (BD LSRII) in each condition and the geometric mean fluorescence intensity (MFI) were calculated using FlowJo (BD Biosciences). The ratio of eGFP to mCherry was normalized to DMSO-treated cells.

CDK9/CyclinT = target: T1, CDK9/CyclinT (Homo sapiens, UniProt P50750); assay: CDK9/CyclinT in vitro kinase activity, single concentration 1 μM; format: biochemical; conditions: single concentration 1 μM
T1 construct: purchased BPS Bioscience 79628
T1 sequence (P50750 whole entry): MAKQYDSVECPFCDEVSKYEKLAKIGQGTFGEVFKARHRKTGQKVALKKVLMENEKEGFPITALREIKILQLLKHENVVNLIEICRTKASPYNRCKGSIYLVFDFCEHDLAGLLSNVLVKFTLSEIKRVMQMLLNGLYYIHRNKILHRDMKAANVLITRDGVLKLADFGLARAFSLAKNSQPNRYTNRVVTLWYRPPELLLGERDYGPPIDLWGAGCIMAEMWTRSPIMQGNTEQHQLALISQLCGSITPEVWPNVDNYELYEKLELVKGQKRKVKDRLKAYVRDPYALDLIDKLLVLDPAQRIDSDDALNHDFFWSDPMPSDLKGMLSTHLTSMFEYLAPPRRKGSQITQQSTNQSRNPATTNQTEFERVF
T1 sequence (O60563 whole entry partner): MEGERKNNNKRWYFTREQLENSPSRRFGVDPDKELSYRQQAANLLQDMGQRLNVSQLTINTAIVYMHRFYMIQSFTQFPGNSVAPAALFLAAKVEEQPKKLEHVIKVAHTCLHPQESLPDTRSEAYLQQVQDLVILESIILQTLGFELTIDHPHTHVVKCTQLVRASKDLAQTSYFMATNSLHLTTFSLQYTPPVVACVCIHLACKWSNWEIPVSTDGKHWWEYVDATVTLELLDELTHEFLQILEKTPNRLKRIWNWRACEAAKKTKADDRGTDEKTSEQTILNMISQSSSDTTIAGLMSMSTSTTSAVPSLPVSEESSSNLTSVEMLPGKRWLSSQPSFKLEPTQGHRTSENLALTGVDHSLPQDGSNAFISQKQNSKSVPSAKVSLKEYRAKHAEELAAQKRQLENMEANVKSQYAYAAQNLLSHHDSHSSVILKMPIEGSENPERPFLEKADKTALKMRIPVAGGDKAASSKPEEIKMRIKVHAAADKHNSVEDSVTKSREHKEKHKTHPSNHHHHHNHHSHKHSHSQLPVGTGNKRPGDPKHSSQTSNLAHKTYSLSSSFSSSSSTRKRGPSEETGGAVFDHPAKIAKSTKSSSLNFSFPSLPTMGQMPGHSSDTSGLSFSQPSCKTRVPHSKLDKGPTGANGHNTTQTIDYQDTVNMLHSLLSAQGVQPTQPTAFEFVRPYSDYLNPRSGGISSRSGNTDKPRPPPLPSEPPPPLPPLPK
Experimental: Kinase activity was assessed using the kinase assay kits from BPS Bioscience for CDK1, CDK9 and CDK12 with Kinase Glo MAX in duplicates. Compounds were tested at a single concentration of 1 μM for CDK1 and CDK9 activity, and in a dilution ranging from 0.64 nM to 50 μM for CDK12 activity. Chemiluminescence was read using the Neo Synergy BioTek plate reader.

[1] = test system: OCI-AML5 cells expressing shRNAs targeting CDK1, 2, 4, 7, 9, cyclin K; assay: Dose response in OCI-AML5 expressing shRNAs targeting CDK1, 2, 4, 7, 9, cyclin K or control; format: cell-based, H. sapiens; conditions: for Class: class from shRNA IC50 profile and cyclin K-eGFP degradation
OCI-AML5 cells = assay: Dose-response proliferative assay in OCI-AML5 (4 days, CellTiterGlo); format: cell-based, H. sapiens
Experimental: Cell lines were purchased from the ATCC or donated from collaborators. OCI-AML5 cell line was cultured in αMEM, 10% heat-inactivated FBS supplemented with 10 ng/mL GM-CSF, OCI-AML1, U2OS and HEK293T cell lines in DMEM, 10% heat-inactivated FBS. Cells were maintained at 37 °C in 5% CO2 atmosphere.
Dose-response assays in primary AML specimens were performed as in chemical screen (see above) with the exception that compounds were tested in serial dilution (8 dilutions, 1:4, 10 μM down to 0.5 nM). Dose-response assays in OCI-AML5 cell line were conducted similarly with the following modifications: 300 cells per well were seeded in 50 μL of cell line media and cell viability was evaluated after 4 days in culture.

[2] = test system: OCI-AML5 cells expressing shRNA targeting CUL4A or CUL4B; assay: Dose response in OCI-AML5 expressing shRNAs targeting CUL4A, CUL4B or control; format: cell-based, H. sapiens; conditions: ratio of IC50 in shCUL4A vs shCTRL OCI-AML5 cells
[3] = OCI-AML5 expressing shRNA CCNK (cyclin K), read-out: IC50 shRNA CCNK
[4] = OCI-AML5 expressing shRNA CDK1, read-out: IC50 shRNA CDK1
[5] = OCI-AML5 expressing shRNA CDK2, read-out: IC50 shRNA CDK2
[6] = OCI-AML5 expressing shRNA CDK4, read-out: IC50 shRNA CDK4
[7] = OCI-AML5 expressing shRNA CDK7, read-out: IC50 shRNA CDK7
[8] = OCI-AML5 expressing shRNA CDK9, read-out: IC50 shRNA CDK9
[9] = Homo sapiens, OCI-AML-5, OCI-AML5 cells, read-out: IC50 in AML5
[10] = Homo sapiens, OCI-AML-5, OCI-AML5 expressing shRNA CCNK (cyclin K), read-out: IC50 shRNA CCNK
[11] = Homo sapiens, OCI-AML-5, OCI-AML5 expressing shRNA CDK1, read-out: IC50 shRNA CDK1
[12] = Homo sapiens, OCI-AML-5, OCI-AML5 expressing shRNA CDK2, read-out: IC50 shRNA CDK2
[13] = Homo sapiens, OCI-AML-5, OCI-AML5 expressing shRNA CDK4, read-out: IC50 shRNA CDK4
[14] = Homo sapiens, OCI-AML-5, OCI-AML5 expressing shRNA CDK7, read-out: IC50 shRNA CDK7
[15] = Homo sapiens, OCI-AML-5, OCI-AML5 expressing shRNA CDK9, read-out: IC50 shRNA CDK9

Compound	% degradation cyclin K-eGFP (cyclin KeGFP) [%]	% CDK9 inhibition (CDK9/CyclinT) [%]	pIC50 [1, 3]	pIC50 [1, 4]	pIC50 [1, 5]	pIC50 [1, 6]	pIC50 [1, 7]	pIC50 [1, 8]	Class [1]	pIC50 (OCI-AML5 cells; [9])	Ratio shCUL4A/shCTRL [2]	inhibition at 1 µM (CDK9/CyclinT) [%]	pIC50 [1, 10]	pIC50 [1, 11]	pIC50 [1, 12]	pIC50 [1, 13]	pIC50 [1, 14]	pIC50 [1, 15]	activity after alteration of the aminothiazole core / bulky replacement [1]	other results
CC(=O)Nc1ncc(SCc2cccnc2)s1 [UOM-005188]	6	1	< 5.00	5.53	< 5.00	< 5.00	< 5.00	< 5.00	2											
O=C(Cc1ccc(C(F)(F)F)cc1)Nc1ncc(SCc2cccnc2)s1 [UOM-005203]	51								mixed 1-2	5.37	1.13	72	5.52	5.57	5.36	5.44	5.42	5.44		
O=C(Cc1cc(F)ccc1Br)Nc1ncc(SCc2cccnc2)s1 [UOM-005204]	12								2	5.35	1.11	15	5.16	5.45	5.08	5.28	5.09	5.39		
CC(C)(C)OC(=O)N1CCC(C(=O)Nc2ncc(SCc3cccnc3)s2)CC1 [UOM-005205]	32	40	5.29	5.52	5.53	5.29	5.48	5.37			0.65									pIC50 (OCI-AML5 cells; OCI-AML5 cells, read-out: IC50 in AML5): 5.53
CSc1ccc(CC(=O)Nc2ncc(SCc3cccnc3)s2)cc1 [UOM-005206]	76								mixed 1-2	5.93	1.77	67	6.34	6.06	5.89	5.88	5.88	6.07		
O=C(CC1CCCC1)Nc1ncc(SCc2cccnc2)s1 [UOM-005225]	2								2	5.42	1.07	73	5.34	5.63	5.53	5.39	5.39	5.52		
Cc1nc(CC(=O)Nc2ncc(SCc3cccnc3)s2)c(C)s1 [UOM-005227]	0									5.25	1.12	53	5.21	5.11	5.19	5.32	5.32	5.27		
Cn1cc(CC(=O)Nc2ncc(SCc3cccnc3)s2)c2ccccc21 [UOM-005228]	23								2	5.39	0.81	51	5.27	5.64	5.34	5.36	5.38	5.49		
Cc1nnc(NC(=O)Cc2ccc(N(C)C)cc2)s1 [UOM-005596]	0	0	< 5.00	< 5.00	< 5.00	< 5.00	< 5.00	< 5.00	inactive										loss of binding of the compounds to CDK	
CN(C)c1ccc(CC(=O)Nc2nccs2)cc1 [UOM-005597]	4								inactive	< 5.00		0	< 5.00	< 5.00	< 5.00	< 5.00	< 5.00	< 5.00		
Cc1csc(NC(=O)Cc2ccc(N(C)C)cc2)n1 [UOM-005598]	1	0	< 5.00	< 5.00	< 5.00	< 5.00	< 5.00	< 5.00	inactive										neither bind to CDKs, nor degrade Cyclin K	
CN(C)c1ccc(CC(=O)Nc2nc3c(s2)CCC3)cc1 [UOM-005599]	13								inactive	< 5.00		0	< 5.00	< 5.00	< 5.00	< 5.00	< 5.00	< 5.00	neither bind to CDKs, nor degrade Cyclin K	
CN(C)c1ccc(CC(=O)Nc2nc3ccccc3s2)cc1 [UOM-005600]	29	10	< 5.00	< 5.00	< 5.00	< 5.00	< 5.00	< 5.00	inactive										neither bind to CDKs, nor degrade Cyclin K	
CN(C)c1ccc(CC(=O)Nc2nncs2)cc1 [UOM-005601]	1	0	< 5.00	< 5.00	< 5.00	< 5.00	< 5.00	< 5.00	inactive										loss of binding of the compounds to CDK	
COC(=O)c1cnc(NC(=O)Cc2ccc(N(C)C)cc2)s1 [UOM-005602]	26								inactive	< 5.00		0	< 5.00	< 5.00	< 5.00	< 5.00	< 5.00	< 5.00		
CN(C)c1ccc(CC(=O)Nc2nc3ccccc3[nH]2)cc1 [UOM-005603]	10								inactive	< 5.00		0	< 5.00	< 5.00	< 5.00	< 5.00	< 5.00	< 5.00	neither bind to CDKs, nor degrade Cyclin K	
CN(C)c1ccc(CC(=O)Nc2nc3ccccc3o2)cc1 [UOM-005604]	8	0	< 5.00	< 5.00	< 5.00	< 5.00	< 5.00	< 5.00	inactive										neither bind to CDKs, nor degrade Cyclin K	
CN(C)c1ccc(CC(=O)Nc2nnc(SCc3cccnc3)s2)cc1 [UOM-005628]	0								inactive	< 5.00		0	< 5.00	< 5.00	< 5.00	< 5.00	< 5.00	< 5.00	loss of binding of the compounds to CDK	
CN(C)c1ccc(C(=O)Nc2ncc(SCc3cccnc3)s2)cc1 [UOM-005845]																				pIC50 (OCI-AML5 cells; Homo sapiens, OCI-AML-5, 96 h, 4 days incubation, read-out: IC50 OCI-AML5): 5.71; % cyclin KeGFP degradation (cyclin KeGFP; 3 h, 10 μM, compared to DMSO, OCI-AML5 G7 clone): 0%
